Measured values: PubChem BioAssay AID330 (DTP/NCI, 2004)
Where “and” joins values, the source holds several entries; their conditions need not be identical. Identical values can stand only once. Inconclusive results and toxic doses are left out. How the source made its calls: active means survival T/C of 150% or more; inactive means T/C below 125% in these data.

Tested on: P388 leukemia ip, CD2F1 mice, survival T/C
Test: NCI In Vivo Anticancer Drug Screen. Data for tumor model P388 Leukemia (intraperitoneal) in CD2F1 (CDF1) mice
Details: endpoint: median survival time, higher = longer survival
How it was run: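 Mice carrying the transplanted tumor received test compound or vehicle. Survival was recorded in each group, and the value is the treated-group measurement divided by that of the vehicle-treated control group.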

[1] = dose: 50.0 mg/kg/injection, schedule: Q01DX005 (ip), vehicle: saline with Tween-80
[2] = dose: 100.0 mg/kg/injection, schedule: Q01DX005 (ip), vehicle: saline with Tween-80
[3] = dose: 200.0 mg/kg/injection, schedule: Q01DX005 (ip), vehicle: saline with Tween-80
[4] = dose: 100.0 mg/kg/injection, schedule: Q04DX003 (ip), vehicle: saline
[5] = dose: 200.0 mg/kg/injection, schedule: Q04DX003 (ip), vehicle: saline
[6] = dose: 400.0 mg/kg/injection, schedule: Q04DX003 (ip), vehicle: saline
[7] = dose: 50.0 mg/kg/injection, schedule: Q01DX005 (ip), vehicle: Klucel (hydroxypropylcellulose) (HPC)
[8] = dose: 100.0 mg/kg/injection, schedule: Q01DX005 (ip), vehicle: Klucel (hydroxypropylcellulose) (HPC)
[9] = dose: 25.0 mg/kg/injection, schedule: Q01DX005 (ip), vehicle: saline with Tween-80
[10] = dose: 60.0 mg/kg/injection, schedule: Q01DX005 (ip), vehicle: saline with Tween-80
[11] = dose: 120.0 mg/kg/injection, schedule: Q01DX005 (ip), vehicle: saline with Tween-80
[12] = dose: 240.0 mg/kg/injection, schedule: Q01DX005 (ip), vehicle: saline with Tween-80
[13] = dose: 50.0 mg/kg/injection, schedule: Q01DX009 (ip), vehicle: saline with Tween-80
[14] = dose: 100.0 mg/kg/injection, schedule: Q01DX009 (ip), vehicle: saline with Tween-80
[15] = dose: 200.0 mg/kg/injection, schedule: Q01DX009 (ip), vehicle: saline with Tween-80
[16] = dose: 100.0 mg/kg/injection, schedule: Q01DX009 (ip), vehicle: Klucel (hydroxypropylcellulose) (HPC)
[17] = dose: 200.0 mg/kg/injection, schedule: Q01DX009 (ip), vehicle: Klucel (hydroxypropylcellulose) (HPC)

Measured: T/C

O=C1C=CC(O)C2C1CC13SSC4(CC5C(=O)C=CC(O)C5N4C1=O)C(=O)N23 (stereo not drawn)
inactive: dose: 4.0 mg/kg/injection, schedule: Q01DX009 (ip), vehicle: Klucel (hydroxypropylcellulose) (HPC) 107 % of control | dose: 8.0 mg/kg/injection, schedule: Q01DX009 (ip), vehicle: Klucel (hydroxypropylcellulose) (HPC) 102 % of control

Cc1ccc(S(=O)(=O)NC(=O)ON2CCCCC2)cc1
inactive: dose: 50.0 mg/kg/injection, schedule: Q01DX009 (ip), vehicle: saline + Tween-80 + alcohol 95 % of control | dose: 100.0 mg/kg/injection, schedule: Q01DX009 (ip), vehicle: saline + Tween-80 + alcohol 95 % of control | dose: 200.0 mg/kg/injection, schedule: Q01DX009 (ip), vehicle: saline + Tween-80 + alcohol 92 % of control

Cc1[nH]c(-c2ccccc2)c2[nH]c(=O)n(-c3ccccc3)c(=O)c12
inactive: dose: 100.0 mg/kg/injection, schedule: Q04DX003 (ip), vehicle: Klucel (hydroxypropylcellulose) (HPC) 93 % of control | dose: 200.0 mg/kg/injection, schedule: Q04DX003 (ip), vehicle: Klucel (hydroxypropylcellulose) (HPC) 98 % of control | dose: 400.0 mg/kg/injection, schedule: Q04DX003 (ip), vehicle: Klucel (hydroxypropylcellulose) (HPC) 93 % of control

c1ccc(CN=C(Nc2ccc(C3=NCCN3)cc2)c2cccc(C(=NCc3ccccc3)Nc3ccc(C4=NCCN4)cc3)c2)cc1
inactive: [1] 104 % of control | [2] 104 % of control | [3] 104 % of control

O=C(O)C(O)C(O)C(O)C(O)c1nn[nH]n1 (stereo not drawn)
inactive: dose: 100.0 mg/kg/injection, schedule: Q01DX001 (ip), vehicle: saline 101 % of control | dose: 200.0 mg/kg/injection, schedule: Q01DX001 (ip), vehicle: saline 98 % of control | dose: 400.0 mg/kg/injection, schedule: Q01DX001 (ip), vehicle: saline 93 % of control

Cc1nc2n[nH]c(N)c2nc1C
inactive: [4] 100 % of control | [5] 104 % of control | [6] 95 % of control

COc1ccc(CNC(=O)C(CO)N2C(=O)c3ccccc3C2=O)cc1 (stereo not drawn)
inactive: [1] 96 % of control | [2] 100 % of control | [3] 90 % of control

COC(=O)c1ccc(=O)c2nc3/c(=C/O)c(O)c(C)c(=O)c3[nH]c12
inactive: dose: 6.25 mg/kg/injection, schedule: Q01DX005 (ip), vehicle: other 117 % of control | dose: 12.5 mg/kg/injection, schedule: Q01DX005 (ip), vehicle: other 122 % of control

CC1=NN(c2ccccc2)C/C1=N\O
inactive: [7] 103 % of control | [8] 102 % of control

CCOC(=O)C1Cc2nc(N)ncc2C1=O (stereo not drawn)
inactive: dose: 15.0 mg/kg/injection, schedule: Q01DX009 (ip), vehicle: saline with Tween-80 96 % of control | dose: 30.0 mg/kg/injection, schedule: Q01DX009 (ip), vehicle: saline with Tween-80 107 % of control | dose: 60.0 mg/kg/injection, schedule: Q01DX009 (ip), vehicle: saline with Tween-80 114 % of control

COC(=O)Nc1nc2ccc(C(O)(c3ccccc3)c3cccs3)cc2[nH]1 (stereo not drawn)
inactive: [9] 95 % of control | [1] 95 % of control | [2] 99 % of control

CC1=C(C)C(=O)O[C@@H]([C@](C)(O)[C@]2(O)CC[C@@]3(O)[C@@H]4C[C@H]5O[C@]56[C@@H](O)C=CC(=O)[C@]6(C)[C@H]4CC[C@]23C)C1
inactive: dose: 1.0 mg/kg/injection, schedule: Q01DX005 (ip), vehicle: distilled water + Tween-80 108 % of control | dose: 2.0 mg/kg/injection, schedule: Q01DX005 (ip), vehicle: distilled water + Tween-80 122 % of control | dose: 4.0 mg/kg/injection, schedule: Q01DX005 (ip), vehicle: distilled water + Tween-80 111 % of control and 113 % of control | dose: 4.0 mg/kg/injection, schedule: Q01DX005 (ip), vehicle: saline 122 % of control | dose: 8.0 mg/kg/injection, schedule: Q01DX005 (ip), vehicle: distilled water + Tween-80 108 % of control and 113 % of control | dose: 16.0 mg/kg/injection, schedule: Q01DX005 (ip), vehicle: distilled water + Tween-80 116 % of control | dose: 16.0 mg/kg/injection, schedule: Q01DX005 (ip), vehicle: saline 122 % of control | dose: 16.0 mg/kg/injection, schedule: Q01DX009 (ip), vehicle: saline 93 % of control | dose: 32.0 mg/kg/injection, schedule: Q01DX009 (ip), vehicle: saline 114 % of control

CCOc1ccc(/C=N/NC(=O)c2ccccc2NC(=O)c2ccccc2Cl)cc1OC
inactive: dose: 30.0 mg/kg/injection, schedule: Q01DX005 (ip), vehicle: Klucel (hydroxypropylcellulose) (HPC) 101 % of control | dose: 60.0 mg/kg/injection, schedule: Q01DX005 (ip), vehicle: Klucel (hydroxypropylcellulose) (HPC) 101 % of control and 90 % of control | dose: 120.0 mg/kg/injection, schedule: Q01DX005 (ip), vehicle: Klucel (hydroxypropylcellulose) (HPC) 101 % of control | dose: 240.0 mg/kg/injection, schedule: Q01DX005 (ip), vehicle: Klucel (hydroxypropylcellulose) (HPC) 91 % of control

O=C(O)c1c(Cl)c(Cl)c(Cl)c(Cl)c1-c1c2ccc(=O)cc-2oc2cc(O)ccc12
inactive: [10] 100 % of control | [11] 100 % of control | [12] 96 % of control

CC(Sc1ncnc2[nH]ncc12)C(N)=O (stereo not drawn)
inactive: [10] 97 % of control | [11] 97 % of control | [12] 118 % of control

O=c1c2ccccc2[nH]c(=S)n1-c1cccc(C(F)(F)F)c1
inactive: [13] 92 % of control | [14] 94 % of control | [15] 100 % of control

Cc1ccc2c3c(c(=O)oc2c1)[C@H](C)C[C@@](C)(CO)O3
inactive: [10] 113 % of control | [11] 107 % of control | [12] 100 % of control

c1ccc2c(C[Se][Se]Cc3cccc4ccccc34)cccc2c1
inactive: [16] 90 % of control | [17] 90 % of control

Cc1cccc(-c2nc(N)nc(N)n2)c1
inactive: [13] 92 % of control | [14] 95 % of control | [15] 104 % of control

COc1ccc(C23OCCN2C(=O)c2ccccc23)cc1 (stereo not drawn)
inactive: dose: 60.0 mg/kg/injection, schedule: Q01DX005 (ip), vehicle: saline + Tween-80 + alcohol 99 % of control | dose: 120.0 mg/kg/injection, schedule: Q01DX005 (ip), vehicle: saline + Tween-80 + alcohol 100 % of control | dose: 240.0 mg/kg/injection, schedule: Q01DX005 (ip), vehicle: saline + Tween-80 + alcohol 101 % of control

CC(C)=CCC(OC1OC(CO)C(O)C(O)C1O)C1=CC(=O)c2c(O)ccc(O)c2C1=O (stereo not drawn)
inactive: dose: 12.5 mg/kg/injection, schedule: Q04DX002 (ip), vehicle: saline with Tween-80 119 % of control | dose: 25.0 mg/kg/injection, schedule: Q04DX002 (ip), vehicle: saline with Tween-80 115 % of control

COc1cc(CC2C(=O)OCC2C2(c3ccc4c(c3)OCO4)SCCCS2)cc(OC)c1OC (stereo not drawn)
inactive: dose: 50.0 mg/kg/injection, schedule: Q01DX009 (ip), vehicle: Klucel (hydroxypropylcellulose) (HPC) 105 % of control | [16] 91 % of control | [17] 93 % of control

O=c1cc2cccccc-2o1
inactive: dose: 100.0 mg/kg/injection, schedule: Q01DX001 (ip), vehicle: Klucel (hydroxypropylcellulose) (HPC) 101 % of control | dose: 200.0 mg/kg/injection, schedule: Q01DX001 (ip), vehicle: Klucel (hydroxypropylcellulose) (HPC) 103 % of control

c1ccc(CSCCOCCOCCSCc2ccccn2)nc1
inactive: [7] 101 % of control | [8] 108 % of control | dose: 200.0 mg/kg/injection, schedule: Q01DX005 (ip), vehicle: Klucel (hydroxypropylcellulose) (HPC) 104 % of control

C/C(=N\Nc1ccccc1)C1CC2C=C(C#N)C1N(Cc1ccccc1)C2 (stereo not drawn)
inactive: dose: 8.75 mg/kg/injection, schedule: Q01DX005 (ip), vehicle: Klucel (hydroxypropylcellulose) (HPC) 94 % of control | dose: 17.5 mg/kg/injection, schedule: Q01DX005 (ip), vehicle: Klucel (hydroxypropylcellulose) (HPC) 96 % of control | dose: 35.0 mg/kg/injection, schedule: Q01DX005 (ip), vehicle: Klucel (hydroxypropylcellulose) (HPC) 94 % of control

CC1=NN(C)C(=O)C1
inactive: dose: 50.0 mg/kg/injection, schedule: Q04DX003 (ip), vehicle: saline 102 % of control | [4] 101 % of control | [5] 104 % of control | [6] 111 % of control

O=C1NC(=O)C2C3CCC(C12)C1C2C(=O)NC(=O)C2C31 (stereo not drawn)
inactive: dose: 12.5 mg/kg/injection, schedule: Q01DX005 (ip), vehicle: saline with Tween-80 91 % of control | [9] 93 % of control | [1] 101 % of control and 91 % of control
